# Laboratory results: the supplement of paper PMC10307832
# Tests used:
# Assay in all cases: relative viability (nuclei count vs DMSO), 5 days (fraction); higher = more cells survive
# Linifanib = compound: Cc1ccc(F)c(NC(=O)Nc2ccc(-c3cccc4[nH]nc(N)c34)cc2)c1 [Linifanib]
# Summary of the method: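 Nuclei counted with MetaXpress define viability as the ratio of treated to vehicle wells, given as a median across plates. The lung cancer cell lines were in 1536-well plates, pinned with five √10-spaced library-drug doses and imaged at 4× after 5 days and Hoechst staining. Plates passed with control CV below 25% and at least one doubling.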
# Linifanib + Linsitinib = compound: Cc1ccc(F)c(NC(=O)Nc2ccc(-c3cccc4[nH]nc(N)c34)cc2)c1 [Linifanib] + C[C@]1(O)C[C@@H](c2nc(-c3ccc4ccc(-c5ccccc5)nc4c3)c3c(N)nccn32)C1 [Linsitinib] (partner 1 µM)
# Summary of the method: (§1)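 Lung cancer cell lines in 1536-well plates got either a single drug or a fixed anchor-drug dose together with five library-drug doses (not always all listed) in √10 steps, by pin tool, on the day after seeding. Nuclei were counted after 5 days, and relative viability is the treated-to-vehicle ratio of nuclei counts. Values are medians of duplicate plates.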
# Linifanib + Decitabine = compound: Cc1ccc(F)c(NC(=O)Nc2ccc(-c3cccc4[nH]nc(N)c34)cc2)c1 [Linifanib] + Nc1ncn([C@H]2C[C@H](O)[C@@H](CO)O2)c(=O)n1 [Decitabine] (partner 2 µM)
# Summary of the method: as §1
Cell Line,relative viability (Linifanib; 0.03162 µM),relative viability (Linifanib; 0.1 µM),relative viability (Linifanib; 0.3162 µM),relative viability (Linifanib + Linsitinib; first compound 0.03162 µM),relative viability (Linifanib + Linsitinib; first compound 0.1 µM),relative viability (Linifanib + Linsitinib; first compound 0.3162 µM),relative viability (Linifanib + Decitabine; first compound 0.03162 µM),relative viability (Linifanib + Decitabine; first compound 0.1 µM),relative viability (Linifanib + Decitabine; first compound 0.3162 µM)
SW 1573,0.98,1.08,0.963,0.853,0.845,0.743,0.514,0.604,0.584
NCI-H596,0.94,1.03,0.884,1.08,0.993,1.06,0.915,1.01,1.06
NCI-H2342,1.04,0.977,0.882,–,–,–,0.732,0.713,0.768
NCI-H358,0.896,1.16,0.924,0.691,0.738,0.693,0.231,0.218,0.213
ABC-1,1.03,0.842,0.672,0.825,1.03,0.788,0.961,0.942,0.95
EMC-BAC-2,1.07,1.03,0.965,0.818,0.877,0.762,1.01,1.03,0.951
NCI-H1666,0.986,1.03,0.939,0.66,0.869,0.803,0.856,0.691,0.698
NCI-H661,1.02,0.977,0.962,0.505,0.676,0.467,0.559,0.626,0.582
NCI-H2126,1.02,1.01,0.972,0.696,0.731,0.753,0.58,0.538,0.575
NCI-H1651,1.07,1.09,0.978,0.997,1.14,0.9,0.616,0.592,0.517
H3255,1.04,1.01,1.02,0.976,1.14,0.845,0.559,0.667,0.615
HOP-62,1.06,1.03,0.974,1.08,0.896,0.876,0.194,0.197,0.2
NCI-H441,1.1,1.27,0.974,0.528,0.731,0.547,0.264,0.291,0.253
SK-MES-1,0.969,1.08,0.965,1.04,1.12,1.03,0.352,0.408,0.36
EPLC-272H,0.883,1.23,0.884,1.04,1.2,1.15,0.352,0.435,0.362
NCI-H1915,1.03,1.02,0.934,1.12,1.09,1.08,0.286,0.247,0.257
NCI-H520,0.862,1.07,0.955,1.07,1,0.811,0.461,0.6,0.542
NCI-H2228,0.993,1.3,1.03,0.648,0.705,0.5,–,–,–

Cell Line,relative viability (Linifanib; 0.03162 µM),relative viability (Linifanib; 0.1 µM),relative viability (Linifanib; 0.3162 µM),relative viability (Linifanib + Linsitinib; first compound 0.03162 µM),relative viability (Linifanib + Linsitinib; first compound 0.1 µM),relative viability (Linifanib + Linsitinib; first compound 0.3162 µM),relative viability (Linifanib + Decitabine; first compound 0.03162 µM),relative viability (Linifanib + Decitabine; first compound 0.1 µM),relative viability (Linifanib + Decitabine; first compound 0.3162 µM)
LCLC-103H,1.02,1.03,0.981,1.13,1.07,0.978,0.75,0.667,0.696
201T,1,0.992,0.982,1.01,1.02,1.05,0.867,0.862,0.891
NCI-H1792,0.935,0.944,0.928,0.386,0.522,0.535,0.525,0.643,0.464
LXF-289,1.04,1.04,0.84,0.989,1.02,0.972,0.376,0.355,0.326
LCLC-97TM1,1.15,1.02,0.919,0.17,0.214,0.171,0.222,0.228,0.249
NCI-H1395,0.956,0.983,0.868,1.06,1.08,1.09,0.725,0.753,0.698
CAL-12T,1.15,0.99,0.9,0.905,0.722,0.755,–,–,–
NCI-H1975,0.987,1.03,0.938,0.898,0.98,1.02,0.384,0.446,0.413
EKVX,0.982,1.01,0.91,1.11,1.03,0.868,0.314,0.359,0.35
NCI-H1437,1.07,1.01,0.978,1.03,1.14,0.814,0.62,0.573,0.571
RERF-LC-KJ,1.04,0.989,0.96,0.888,0.907,0.827,0.707,0.651,0.717
NCI-H1755,1.03,1.06,0.987,0.953,1.01,0.999,0.696,0.731,0.698
NCI-H1793,0.908,1.08,0.941,0.897,0.976,0.817,0.486,0.412,0.586
LOU-NH91,0.979,1.07,0.951,0.899,1.01,0.954,0.812,0.785,0.814
NCI-H1944,0.931,1.08,0.963,1.09,1.17,1.14,0.425,0.449,0.415
NCI-H1993,0.89,1.2,0.946,0.749,0.691,0.788,0.631,0.654,0.59
HCC-15,1.08,1.05,0.939,0.881,0.89,0.817,0.745,0.693,0.629
